From BindingDB's records for doi:10.1016/j.bmc.2012.01.011 (Korea Research Institute of Bioscience and Biotechnology, 2012)

Biological target: Neuraminidase (Influenza A virus (strain A/Brevig Mission/1/1918 H1N1), UniProt Q9IGQ6)
Assay: Inhibition of recombinant influenza A virus H1N1 A/Bervig_Mission/1/18 sialidase activity using 4-methylumbelliferyl-alpha-D-N-acetylneuraminic acid sodium salt hydrate as substrate by fluorimetric analysis

Chain of Neuraminidase (Q9IGQ6 whole entry): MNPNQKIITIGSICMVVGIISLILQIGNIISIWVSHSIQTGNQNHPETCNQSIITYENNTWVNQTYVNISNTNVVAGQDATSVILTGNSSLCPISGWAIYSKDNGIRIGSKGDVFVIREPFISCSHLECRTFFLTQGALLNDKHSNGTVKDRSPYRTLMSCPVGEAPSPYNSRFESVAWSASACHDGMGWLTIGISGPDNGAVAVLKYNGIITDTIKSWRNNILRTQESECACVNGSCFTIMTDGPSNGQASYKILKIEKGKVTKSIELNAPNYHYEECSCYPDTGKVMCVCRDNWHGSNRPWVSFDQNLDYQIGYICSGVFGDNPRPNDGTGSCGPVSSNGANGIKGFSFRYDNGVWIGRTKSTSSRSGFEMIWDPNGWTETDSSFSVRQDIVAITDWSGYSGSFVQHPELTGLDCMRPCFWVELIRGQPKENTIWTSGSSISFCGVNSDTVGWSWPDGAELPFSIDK

| SMILES | IC50 [µM] |
| --- | --- |
| CC(C)=CC=C(OC(=O)C(C)C)c1cc(O)c2c(O)ccc(O)c2c1O | 40.5 |
| CC(C)=CC=C(OC(=O)CC(C)(C)O)c1cc(O)c2c(O)ccc(O)c2c1O [(R)-1-(5,8-dihydroxy-1,4-dioxo-1,4-dihydronaphthalen-2-yl)-4-methylpent-3-enyl 3-hydroxy-3-methylbutanoate] | 40.5 |
